In ChEMBL document CHEMBL3046677, “Diastereoselective synthesis of the model insect antifeedants related to azadiradione and epoxyazadiradione based on intramolecular insertion of -aryl--diazoketones” (1998):

Experiments:
Spodoptera littoralis = test: Antifeedant activity against Spodoptera littoralis assessed as antifeedant index at 100 ppm; format: functional
Spodoptera frugiperda = test: Antifeedant activity against Spodoptera frugiperda (fall armyworm) assessed as antifeedant index at 100 ppm; format: functional

CC1(C)CCC[C@@]2(C)[C@H](c3ccoc3)C(=O)[C@H]3O[C@@]312 (stereo in doubt; (-))
AFI (Spodoptera littoralis): 32%

CC(=O)O[C@@H]1C[C@H]2C(C)(C)C(=O)C=C[C@]2(C)[C@H]2CC[C@@]3(C)[C@H](c4ccoc4)C(=O)[C@H]4O[C@]43[C@@]21C [EPOXYAZADIRADIONE]
AFI (Spodoptera littoralis): 22%

CC1(C)CCC[C@@]2(C)[C@H](c3ccoc3)C(=O)[C@H]3O[C@@]312 (stereo in doubt; (+))
AFI (Spodoptera littoralis): 55%

CC1(C)CCC[C@@]2(C)[C@H](c3ccoc3)C(=O)[C@H]3O[C@@]312 (racemic)
AFI (Spodoptera littoralis): 28%

O=C1[C@H]2O[C@]23CCCC[C@H]3[C@@H]1c1ccsc1 (racemic)
AFI (Spodoptera frugiperda): 36%

O=C1C=C2CCCC[C@H]2[C@@H]1c1ccsc1 (racemic)
AFI (Spodoptera frugiperda): 1%

O=C1C=C2CCCC[C@H]2[C@@H]1c1ccoc1 (racemic)
AFI (Spodoptera frugiperda): 42%

C[C@@H]1CCC[C@@]2(C)[C@H](c3ccoc3)C(=O)[C@H]3O[C@]132 (racemic)
AFI (Spodoptera frugiperda): 29%

CC(=O)O[C@@H]1C[C@H]2C(C)(C)C(=O)C=C[C@]2(C)[C@H]2CC[C@]3(C)C(=CC(=O)[C@H]3c3ccoc3)[C@@]21C [AZADIRADIONE]
AFI (Spodoptera littoralis): 1%

O=C1C=C2CCCC[C@H]2[C@@H]1c1ccccc1 (racemic)
AFI (Spodoptera frugiperda): 40%

CC1(C)CCC[C@]2(C)C1=CC(=O)[C@H]2c1ccoc1 (racemic)
AFI (Spodoptera littoralis): 16%

O=C1[C@H]2O[C@]23CCCC[C@H]3[C@@H]1c1ccccc1 (racemic)
AFI (Spodoptera frugiperda): -12%
